Data taken from patent US11872230B2, “Method of treating a methionine-dependent cancer” (Agency for Science, Technology and Research, priority 2018, dated 2024).

Key:
Adh cells = assay: Proliferation of Adh cells grown in FIDAS5-containing media; format: cell-based, human
Procedure: (§1) Cells were seeded into 96-well plates at a density of 2,000 cells/well for TS cells and 500 cells/well for Adh cells. The relative number of viable cells was determined by the quantification of ATP using the CellTiter-Glo Luminescent Cell Viability Assay (Promega) system.

[1] = test system: histone methylation in Adh cells; assay: Western blot of methylated histones in Adh cells; format: cell-based, human; conditions: FIDAS5 treatment
Procedure: (§2) 1.5×10^6 cells were lysed in Llaemli-SDS buffer and then sonicated. Total protein concentration was measured by Bradford assay. Total cell lysates were separated by SDS-PAGE and transferred onto nitrocellulose, followed by blocking in 5% (v/v) milk in Tris-buffered saline in Tween 20, probing with the indicated antibodies and visualized by chemiluminescence (Roche). Primary antibodies used were anti-β-Actin (sc-47778), anti-GAPDH (sc-32233) from Santa Cruz: anti-GLDC (ab97625), anti-H3 (ab1791), anti-H3 (dimethylK36) (ab9049), anti-MAT2A (ab77471), anti-MTR (ab9209), anti-H3 (trimethylK79) (ab2621), anti-MTHFR (ab125707), anti-MTAP (ab ab55517) from Abcam; anti-H3(trimethyl K4) (39159), anti-H3(trimethyl K27)(39155), anti-H3(trimethylK36)(61101) and anti-H3(trimethylK9)(39765) from Active Motif; anti-β-catenin (BD610154) from BD Biosciences; anti-SHMT2 (HPA020549) and anti-SAHH (WH0000191M8) from Sigma; anti-Symmetric Di-Methyl Arginine Motif (13222) from CST.

[2] = test system: histone methylation in NIH 3T3 cells; assay: Western blot of methylated histones in NIH 3T3 cells; format: cell-based; conditions: FIDAS5 treatment
Procedure: as §2

[3] = test system: methionine cycle metabolites in TS cells; assay: LC/MS abundance of methionine cycle metabolites 48 h after inhibitor treatment; format: cell-based, human; conditions: 48 h FIDAS5 (10 μM), normalized to DMSO
Procedure: Cis-platinum (cis-Diammineplatinum(II) dichloride) and MG132 (10 μM final concentration) was purchased from Sigma, FIDAS-5 (final concentration of 10 μM in culture medium) from Merck Millipore and D9 (final concentration of 500 nM in culture medium).
For suspension cell culture, 10 million cells per sample were obtained and quenched with 4 volumes of ice-cold 150 mM sodium chloride solution. The cell pellets were collected by centrifugation of the quenched samples at 3000 g for 5 min at 4° C. and the supernatant was aspirated and discarded. For adherent cell culture, the media was gently aspirated and the cells on the surfaces of the well plates were gently washed with ice-cold 150 mM sodium chloride solution thrice. Ice-cold sodium chloride was added to the plate and a cell scraper was used to release adherent cells from the plate surface. The cell pellets were collected as described earlier and kept on ice. […]
For targeted LC/MS analysis, the chromatographic peak integration was performed using Targetlynx software (Waters Corp). In addition, for the ^13C-labeled methionine pulse-chase experiments, the atomic percent excess (APE) for each species was calculated and natural abundance corrected from an isotopomer matrix accounting for the presence of natural abundance carbons distributed throughout each possible parent/daughter ion combination (Table 3). […]

TS cells (lung TICs) [4] = assay: Tumor formation in NSG mice after transplantation of pre-treated TS cells; format: in vivo; conditions: 500,000 TS cells treated 48 h with inhibitor, transplanted into NSG mice, 6 weeks
From the text: 5×10^5 single cells were mixed in a 1:1 mixture of serum free DMEM/F12 and Matrigel (BD) and injected subcutaneously into the flanks of 4-6 week old male and female NOD.Cg-Prkdc^scid Il2rg^tm1wjl SzJ (Jackson Laboratories). About 6 weeks later, or when tumor sizes exceed 2 cm in length, mice were sacrificed and tumors harvested for analysis. All animal experiments were approved by the Agency for Science Technology and Research Singapore—Biological Resource Centre. Mice were randomized by sex.
(§3) To evaluate the methionine cycle as a therapeutic target in lung TICs, small molecule inhibitors that target enzymes within this pathway were employed, mimicking the effects of short-term methionine starvation (FIG. 5a). two inhibitors known to perturb methionine cycle activity and cellular methylation levels: 1) MAT2A inhibitor, FIDAS5; and 2) SAHH inhibitor, D9, which is an analog of DZNep. In a manner similar to amino acid starvation studies, TS cells were exposed transiently to the compounds for 48 h in culture and were immediately used for downstream tumorigenesis assays.

TS cells (lung TICs) [5] = assay: Soft agar colony formation of pre-treated TS cells; format: cell-based, human; conditions: TS cells treated 48 h with inhibitor prior to soft agar assay
Procedure: 2.5 ml lower layer of 0.7% agar in complete DMEM/F12 with 10% fetal bovine serum was placed in 3 wells of a 6 well dish, and permitted to solidify. 2×10^4 Cells (for 3 wells) were then suspended in a 2 ml layer of 0.35% agar in complete DMEM/F12 with 10% fetal bovine serum and layered on top of the bottom layer. Colonies were stained with crystal violet and counted after approximately 2 months.
as §3

[6] = test system: non-neoplastic cell lines; assay: Proliferation of non-neoplastic (untransformed) cell lines in FIDAS5-containing media; format: cell-based
Procedure: as §1

CNc1ccc(/C=C/c2c(F)cccc2Cl)cc1 [FIDAS5]
proliferation in FIDAS5-containing media (Adh cells): far less affected
histone methylation marks [1]: did not demonstrate reduction in histone methylation marks
histone methylation marks [2]: did not demonstrate reduction in histone methylation marks
reduction of intracellular levels of SAH [3]: ~10 fold
reduction of intracellular levels of SAM [3]: ~10 fold
tumor-forming ability (TS cells (lung TICs) [4]): severely diminished
colony-forming ability (TS cells (lung TICs) [5]): severely diminished
proliferation in FIDAS5-containing media [6]: far less affected
